Measured values from EP0067711A2, “New 1-benzyl-3,4-dihydro-isoquinoline derivative” (CHINOIN Gyogyszer és Vegyészeti Termékek Gyára RT., priority 1981, dated 1982).

Columns and labels:
[1] = system: haemodynamic and cardiovascular system; assay: general effects on the haemodynamic and cardiovascular system in pentobarbital anaesthetized dogs; type: in vivo; set-up: A. vertebralis flow, Changed value: unit not given here; settings: 1 mg/kg i.v.
[2] = system: acute coronary insufficiency induced by vasopressine; assay: anti-angina activity: inhibition of vasopressine-induced acute coronary insufficiency (rise of T-wave on ECG), method of Papp and Szekeres; type: in vivo, rats belonging to the CFY strain; settings: vasopressine 2 IU/kg i.v., pentobarbital anaesthetized CFY rats; papaverin = 1
[3] = system: electric fibrillation threshold of the auricle and ventricle; assay: antiarrhythmial effect: change of electric fibrillation threshold in chloralose-urethane anaesthetized cats; type: in vivo; settings: 1 mg/kg i.v.
Procedure: The antiarrhythmial effect is determined on chloralose-urethane anaesthetized cats [500/300 mg/kg i.p.] by measuring the changes of the electric fibrillation threshold of the auricle and ventricle respectively [method of Szekeres, Méhes and Papp: Brit. 0. Pharmacol. 17, 167 (1961) and that of Szekeres and Papp: Hdb. exp. Pharmacol. 16/3, 131 (1975) respectively]. The general effects exerted on the haemodynamic and cardiovascular system are tested on pentobarbital anaesthetized dogs (35 mg/kg i.v.).

CCOc1cc(CC2=NCCc3cc(OCC)c(OCC)cc32)ccc1O [Formula VII, 6,7-diethoxy-1-(3-ethoxy-4-hydroxy-benzyl)-3,4-dihydro-isoquinoline, reference compound]
A. carotis flow, Duration of effect [1]: 12 min | A. carotis flow, Percental difference [1]: -12 | A. carotis resistance, Duration of effect [1]: 15 min | A. femoralis flow, Duration of effect [1]: 11 min | A. femoralis resistance, Duration of effect [1]: 18 min | A. vertebralis flow, Duration of effect [1]: 7 min | A. vertebralis resistance, Duration of effect [1]: 12 min | A. vertebralis resistance, Percental difference [1]: +12 | Arterial blood pressure, Duration of effect [1]: 8 min | Arterial blood pressure, Percental difference [1]: -22 | Contractibility of the left ventricle (dp/dt), Percental difference [1]: -13 | Coronary flow, Duration of effect [1]: 15 min | Coronary flow, Percental difference [1]: +18 | Coronary resistance, Duration of effect [1]: 11 min | Coronary resistance, Percental difference [1]: -22 | Efficiency of cardial function, Duration of effect [1]: 20 min | Efficiency of cardial function, Percental difference [1]: -13 | Frequence volume, Duration of effect [1]: 5 min | Function of the left ventricle, Duration of effect [1]: 13 min | Function of the left ventricle, Percental difference [1]: -19 | Heart frequence/min, Duration of effect [1]: 7 min | Minute volume, Duration of effect [1]: 3 min | Myocardial oxygenization (O2 supply per O2 consumption), Duration of effect [1]: 18 min | Myocardial oxygenization (O2 supply per O2 consumption), Percental difference [1]: +10 | Oxygen consumption of the left ventricle, Duration of effect [1]: 9 min | Total peripherial resistance, Duration of effect [1]: 14 min | Total peripherial resistance, Percental difference [1]: -32 | Efficiency of cardial function, Changed value ([1]; average + S.E., basic value 0.32 ± 0.03): 0.28 ± 0.05 mkg/ml/100 g | Coronary resistance, Changed value ([1]; average + S.E., basic value 1.03 ± 0.10): 1.42 ± 0.22 Hgmm/ml/min/100 g | Myocardial oxygenization (O2 supply per O2 consumption), Changed value ([1]; average + S.E., basic value 1.62 ± 0.06): 1.79 ± 0.10 | A. carotis resistance, Changed value ([1]; average + S.E., basic value 2.04 ± 0.3): 2.19 ± 0.4 Hgmm/ml/min | Function of the left ventricle, Changed value ([1]; average + S.E., basic value 2.74 ± 0.49): 2.22 ± 0.56 mkg/min | A. vertebralis resistance, Changed value ([1]; average + S.E., basic value 3.22 ± 0.61): 3.65 ± 0.32 Hgmm/ml/min | A. femoralis resistance, Changed value ([1]; average + S.E., basic value 3.48 ± 0.45): 3.69 ± 0.68 Hgmm/ml/min | Frequence volume, Changed value ([1]; average + S.E., basic value 8,8 ± 1): 9.5 ± 1.2 mL | Oxygen consumption of the left ventricle, Changed value ([1]; average + S.E., basic value 8.4 ± 0.9): 7.9 ± 1.9 ml/min/100 g | A. femoralis flow, Changed value ([1]; average + S.E., basic value 46 ± 5): 42 ± 5 mL/min | A. vertebralis flow, Changed value ([1]; average + S.E., basic value 54 ± 9): 50 ± 7 | Coronary flow, Changed value ([1]; average + S.E., basic value 73 ± 13): 86 ± 13 ml/min/100 g | A. carotis flow, Changed value ([1]; average + S.E., basic value 91 ± 9): 80 ± 10 mL/min | Arterial blood pressure, Changed value ([1]; average + S.E., basic value 147 ± 9): 115 ± 11 Hgmm | Heart frequence/min, Changed value ([1]; average + S.E., basic value 173 ± 8): 160 ± 9 min⁻¹ | Minute volume, Changed value ([1]; average + S.E., basic value 1500 ± 153): 1466 ± 233 mL/min | Contractibility of the left ventricle (dp/dt), Changed value ([1]; average + S.E., basic value 5625 ± 557): 4883 ± 419 Hgmm/sec | Total peripherial resistance, Changed value ([1]; average + S.E., basic value 7015 ± 238): 4785 ± 275 dyn. sec. cm^-5 | anti-angina activity related to that of papaverin [2]: 1.28 | Arterial blood pressure, Duration of effect [3]: 5 min | Arterial blood pressure, Percental difference [3]: -23 | Auricle fibrillation threshold, Duration of effect [3]: 9 min | Auricle fibrillation threshold, Percental difference [3]: +48 | Ventricle fibrillation threshold, Duration of effect [3]: 12 min | Ventricle fibrillation threshold, Percental difference [3]: +43 | Auricle fibrillation threshold, Changed value ([3]; average + S.E., basic value 0.52 ± 0.07): 0.77 ± 0.19 mA | Ventricle fibrillation threshold, Changed value ([3]; average + S.E., basic value 0.70 ± 0.10): 1.00 ± 0.18 mA | Arterial blood pressure, Changed value ([3]; average + S.E., basic value 142 ± 11): 110 ± 16 Hgmm
